For the experiment, the target named is T1, human TLR7 (Homo sapiens, UniProt Q9NYK1).
T1 sequence (Q9NYK1 27-1049): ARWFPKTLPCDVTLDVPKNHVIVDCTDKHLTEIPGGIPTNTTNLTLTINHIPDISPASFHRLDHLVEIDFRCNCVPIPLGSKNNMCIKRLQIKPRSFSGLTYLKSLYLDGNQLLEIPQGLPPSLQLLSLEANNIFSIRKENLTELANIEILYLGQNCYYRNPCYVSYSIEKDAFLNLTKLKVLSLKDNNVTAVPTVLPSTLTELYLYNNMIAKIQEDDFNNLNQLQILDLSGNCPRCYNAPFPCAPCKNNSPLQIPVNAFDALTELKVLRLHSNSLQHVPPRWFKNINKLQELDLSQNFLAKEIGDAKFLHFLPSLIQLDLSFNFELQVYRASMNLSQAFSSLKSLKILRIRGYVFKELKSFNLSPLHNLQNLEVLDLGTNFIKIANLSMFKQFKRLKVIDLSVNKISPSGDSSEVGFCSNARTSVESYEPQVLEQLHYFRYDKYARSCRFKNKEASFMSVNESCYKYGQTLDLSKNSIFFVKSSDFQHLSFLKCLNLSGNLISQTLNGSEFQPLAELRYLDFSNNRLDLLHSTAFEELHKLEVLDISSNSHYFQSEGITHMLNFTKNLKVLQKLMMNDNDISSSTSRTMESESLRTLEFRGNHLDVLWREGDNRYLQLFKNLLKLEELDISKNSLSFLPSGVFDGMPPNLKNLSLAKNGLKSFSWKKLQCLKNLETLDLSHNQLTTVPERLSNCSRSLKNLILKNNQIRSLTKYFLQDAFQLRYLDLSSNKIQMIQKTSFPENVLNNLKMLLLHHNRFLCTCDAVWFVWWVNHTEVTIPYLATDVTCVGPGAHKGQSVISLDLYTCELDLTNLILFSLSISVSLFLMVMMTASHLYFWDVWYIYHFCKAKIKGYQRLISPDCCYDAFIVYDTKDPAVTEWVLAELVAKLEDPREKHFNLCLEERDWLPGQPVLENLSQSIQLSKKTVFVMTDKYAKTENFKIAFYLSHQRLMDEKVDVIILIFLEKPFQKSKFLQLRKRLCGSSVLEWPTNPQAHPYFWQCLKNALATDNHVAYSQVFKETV
Kind of experiment: HEK293-Blue-hTLR-7 cells assay (SEAP reporter). The experiment is classed as cell-based. To be noted: for Ratio (EC50(prodrug)/EC50(active form)): EC50 of prodrug over EC50 of corresponding active form; for EC50: HEK293-Blue-hTLR-7 cells, SEAP reporter, 20 hrs, prodrug, read-out: HEK293-hTLR-7 EC50 (Prodrug). Summed up:
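HEK293-Blue-hTLR7 cells with NF-κB/AP-1-driven SEAP reporter exposed to serially diluted compound (1% DMSO) for 20 hrs at 37° C. Supernatant SEAP measured with QUANTI-Blue after 2 hrs at 37° C, absorbance 620~655 nm; agonism expressed as EC50.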

Consider four molecules from patent US10233184B2, “7-substituted sulfonimidoylpurinone compounds and derivatives for the treatment and prophylaxis of virus infection” (Hoffmann-La Roche Inc., priority 2016, dated 2019).

For the molecule `CCCN(C)C(=O)n1c(=O)n(Cc2ccc(Cl)cc2)c2nc([S@](=N)(=O)CC)nc(N)c21` [Example 41-A, 6-Amino-9-[(4-chlorophenyl)methyl]-2-[S(R)-ethylsulfonimidoyl]-N-methyl-8-oxo-N-propyl-purine-7-carboxamide], the “Ratio (EC50(prodrug)/EC50(active form))” value worked out at 518.8 and the EC50 – broadly, the concentration that produces a half-maximal response – worked out at 44.1 µM.

In the case of `CCCN(C)C(=O)n1c(=O)n(Cc2ccc(Cl)cc2)c2nc([S@@](=N)(=O)CC)nc(N)c21` [Example 41-B, 6-Amino-9-[(4-chlorophenyl)methyl]-2-[S(S)-ethylsulfonimidoyl]-N-methyl-8-oxo-N-propyl-purine-7-carboxamide], the “Ratio (EC50(prodrug)/EC50(active form))” value was 452.1 and the EC50 is 32.1 µM.

For the molecule `CCN(C)C(=O)n1c(=O)n(Cc2ccc(Cl)cc2)c2nc([S@@](=N)(=O)CC)nc(N)c21` [Example 42-A, 6-Amino-9-[(4-chlorophenyl)methyl]-N-ethyl-2[S(S)-ethylsulfonimidoyl]-N-methyl-8-oxo-purine-7-carboxamide], the “Ratio (EC50(prodrug)/EC50(active form))” value came to 570.4 and the EC50 is 40.5 µM.

Regarding `CCCN(C)C(=O)n1c(=O)n(Cc2ccc(C)cc2)c2nc([S@](=N)(=O)CC)nc(N)c21` [Example 43-A, 6-Amino-2-[S(R)-ethylsulfonimidoyl]-N-methyl-8-oxo-N-propyl-9-(p-tolylmethyl)purine-7-carboxamide], the “Ratio (EC50(prodrug)/EC50(active form))” value was determined as 1000 and the EC50 amounted to 110 µM.
